According to patent US20210008047A1, “TARGETING MINIMAL RESIDUAL DISEASE IN CANCER WITH RXR ANTAGONISTS” (VIB VZW, priority 2018, published 2021):

Assays:
MM052 cells = assay: Colony assay and Cell Titer Glo assay in short-term melanoma culture MM052; type: cell-based, human
Method: E) and Cell Titer Glo assay performed after 6 days after incubation of the short culture melanoma line MM052 with MEK inhibitor trametinib (TRA; 2 nM), RXRG agonist bexarotene (BEX; 1 uM), FAK inhibitor PF-562271 (1 uM) and RXRG antagonist HX531 (2 uM).
Cells were grown to near confluency on 12well plates and treated with the indicated drug combinations for the indicated time period. Cells were washed once with PBS, stained with crystal violet (1% crystal violet w/v, 35% methanol v/v) for 15 min, washed with PBS and destained in tap water.
2500 cells were plated onto a 96well plate and treated with the indicated drug combinations for the indicated time period. Cell Titer Glo assay was performed according to the manufacturer's instruction (Promega) and luminescence was measured on a VictorX3 (Perkin Elmer).

MEL006 cells = assay: FACS of GFRA2-positive (NDTC) cells in drug-exposed MEL006 cultures
Method: Cells from dissociated MEL006 tumors were grown in 5% CO2 at 37° C. in F10 (Gibco, Life Technologies) supplemented with 10% FBS (Gibco, Life Technologies) and 0.25% Glutamax (Gibco, Life Technologies).
Cells were incubated with GFRA2 antibody (AF429 R&D 3 μg/mL) for 45 minutes at room temperature, followed by anti-goat secondary antibody conjugated with Alexa Fluor® 594 (ThermoFisherScientific) for 30 min at room temperature. Cells were resuspended in FACS sorting buffer (culture medium supplied with 1% EDTA 100 mM).
To assess whether emergence of NDTCs upon MAPK inhibition is cancer cell intrinsic or depends on micro-environmental cues, we exposed 2D cultures of Me1006 to near IC25 concentrations of dabrafenib and trametinib for 10 days.

With `CN1c2ccc([N+](=O)[O-])cc2N=C(c2ccc(C(=O)O)cc2)c2cc3c(cc21)C(C)(C)CCC3(C)C` [HX531] the “Sensitization of cells to trametinib” value (MM052 cells; MM52, HX531 2 uM, trametinib 2 nM per FIG. 7 legend) was “sensitized” and the “Drug-dependent induction of GFRA2-positive cells” value (MEL006 cells; in the presence of IC50 concentrations of the BRAF and MEK-inhibitors) was “completely inhibited”.

With `CN(c1ncccc1CNc1nc(Nc2ccc3c(c2)CC(=O)N3)ncc1C(F)(F)F)S(C)(=O)=O` [PF-562271] the “Drug-dependent emergence of the GFRA2-high cell population” value (MEL006 cells; FAK inhibitor together with DT, dose-dependent) was “diminished” and the “Sensitivity of GFRA2high cells to FAK inhibitors” value (MEL006 cells; MEL006 cells treated with DT and or FAK inhibitors, then FACS sorted for GFRA2) was “sensitive”.

In the case of `C=C(c1ccc(C(=O)O)cc1)c1cc2c(cc1C)C(C)(C)CCC2(C)C` [bexarotene], the “Sensitivity of cells to a combination of trametinib/FAK-inhibitors” value (MM052 cells; MM52) is reported as “increased”, the Long-term growth inhibition (MM052 cells; MM52, bexarotene alone) is reported as “did not induce measurable long-term growth inhibition” and the “Sensitivity of cells to trametinib” value (MM052 cells; MM52, bexarotene at concentrations as low as 10 nM) is reported as “significantly decreased”. The “Cells in which cell death occurred” value (MM052 cells; bexarotene with trametinib/FAK-inhibitors, after 3 days of treatment (data not shown)) was about 100%.
